Measurements taken from paper PMC6494957 (Frontiers in Microbiology, 2019).
Values after ≈ are worked out from the molar mass of the structure shown. Where two headings read alike, the source gives them in different places.

How the values were obtained:
[1] = test system: all the cell lines tested (HaCaT, HEK 293, MDCK); experiment: cells
Procedure: Cells were maintained in Dulbecco’s modified Eagle’s medium (DMEM) with 10% fetal bovine serum (FBS) and 1% PenStrep (100 U/mL Penicillin and 100 μg/mL Streptomycin) at 37°C with 5% CO2. Cells were serially passaged at ∼80% confluence ∼ every 4 days. Assays were performed in duplicate in 96 well plates seeded with ∼25,000 cells per well. […] Briefly, the antimicrobials were prepared by performing a twofold serial dilution at 100× of tested concentration in DMSO. Subsequently, a 1 μl aliquot of each concentration was transferred to a sterile 96-well plate containing fresh DMEM with either 10% FBS. After mixing four times, the media aliquots with different concentrations of antimicrobial were transferred to each well of the 96-well plate seeded with cells, using wells containing 1–2% DMSO only as control. To determine the effect of FBS on the cytotoxicity of each compound, DMEM with 40% FBS containing different concentrations of antimicrobial was prepared as described above. After 24 h of exposure, WST-1 reagent (Cell Proliferation Assay reagent, Roche) at a concentration of 10% was added to each well. Absorbance at A450 nm on a Multiskan Ascent 354 Spectrophotometer (Labsystems) was measured after 1 h of incubation. The IC50 value was determined for each compound against each cell line via non-linear regression (three parameters) using GraphPad Prism v6 software.

S. aureus ATCC 29213 = experiment: MIC broth microdilution, quality control strain; assay type: cell-based; conditions: Staphylococcus aureus, ATCC29213; S. aureus ATCC 29213, quality control strain
Procedure: (§1) Luria Bertani (LB) broth (Oxoid, Australia) was applied for MIC testing in lieu of cation-adjusted Mueller–Hinton broth as robenidine has been previously shown to chelate calcium ions. Furthermore, a twofold serial dilution of robenidine was performed in 100% DMSO, with 1 μl dispensed to each well due to the hydrophobicity of the compound ([Abraham et al., 2016]). The MIC for ampicillin or gentamicin against each isolate was determined for each test to serve as an internal quality control. The MICs of isolates were determined by visual reading and using an EnSpire Multimode Plate Reader 2300 atA600nm.

[2] = test system: Gram-negative control strains; experiment: Checkerboard, summary over Gram-negative strains; assay type: cell-based
Procedure: (§2) Briefly, antimicrobial stock solutions for robenidine and PMBN were prepared at a concentration of 12.8 mg/ml in DMSO. […] A 1 μl aliquot of the first compound from each combination was dispensed along the abscissa (from row A to G) of the 96-well microplate, while the second compound was dispensed along the ordinate (from column 12 to column 3) using an electronic multichannel pipette followed by 89 μl of LB broth. Each well of the plate was inoculated with an aliquot of 10 μl bacterial suspension at a concentration of 1-5 × 10^6 colony forming units (CFU) per ml. Subsequently, the plate was incubated at 37°C for 24 h. The fractional inhibitory concentration index (FICI) described the results of the combinations, and was calculated utilizing the following formula:
(§3) DRI = MIC of drug alone/MIC of drug in combination

Acinetobacter spp. = experiment: Checkerboard, summary for Acinetobacter spp.; assay type: cell-based; conditions: in the presence of EDTA and PMBN
Procedure: as §2, §3

[3] = test system: tested pathogens (canine otitis externa isolates); experiment: MIC, summary over canine otitis externa pathogens; assay type: cell-based
Procedure: as §1, with “Mueller-Hinton” for “Mueller–Hinton”, “atA600nm. […] Each well of the plate was inoculated with an aliquot of 10 μl bacterial suspension at a concentration of 1-5 × 10^6 colony forming units (CFU) per ml. Subsequently, the plate was incubated at 37°C for 24 h. The fractional inhibitory concentration index (FICI) described the results of the combinations, and was calculated utilizing the following formula: […]” for “atA600nm.”

clinical MRSA = test system: clinical MRSA; set-up: method as in Abraham et al., 2016; Ogunniyi et al., 2017; conditions: ref Abraham et al., 2016, Ogunniyi et al., 2017; cited from earlier work
S. pneumoniae strains = test system: S. pneumoniae strains; set-up: method as in Abraham et al., 2016; Ogunniyi et al., 2017; conditions: ref Abraham et al., 2016, Ogunniyi et al., 2017; cited from earlier work
[4] = set-up: method as in Abraham et al., 2016; conditions: ref Abraham et al., 2016, cited from earlier work

Compound	IC50 [1] [mM]	MIC (S. aureus ATCC 29213) [µg/mL]	lowest robenidine concentration inhibiting growth ([2]; in combination with PMBN, Gram-negative ATCC strains of ESKAPE pathogens) [µg/mL]	DRIs of robenidine ([2]; in the presence of EDTA, Gram-negative control strains (Table 1))	DRIs of robenidine ([2]; in the presence of PMBN, Gram-negative control strains (Table 2))	MIC ([2]; in the presence of PMBN, Gram-negative pathogens, read-out: MIC of robenidine) [µg/mL]	DRIs of robenidine ([2]; in the presence of both EDTA and PMBN, all tested isolates (abstract))	fold increase in susceptibility ([2]; robenidine in combination with PMBN, Gram-negative ATCC strains of ESKAPE pathogens)	fold reduction of robenidine MICs (Acinetobacter spp.)	MIC values ([3]; Gram-positive bacteria: S. pseudintermedius and beta-haemolytic streptococci) [µg/mL]	MIC90 of robenidine ([3]; in the presence of EDTA, tested pathogens) [µg/mL]	effective concentrations (MIC range) (clinical MRSA) [µg/mL]	effective concentrations (MIC range) (S. pneumoniae strains) [µg/mL]	serum impact on MIC values ([4]; 10% serum)	serum impact on MIC values ([4]; 50% serum)
O=C(O)CN(CCN(CC(=O)O)CC(=O)O)CC(=O)O [EDTA, ethylenediaminetetraacetic acid]	3.4	–	–	–	–	–	–	–	–	–	–	–	–	–	–
N=C(N/N=C/c1ccc(Cl)cc1)N/N=C/c1ccc(Cl)cc1 [ROB, robenidine]	–	2 (≈ 5.98 µM)	≥ 0.125	2- to 256 fold	8- to 256 fold	0.5 to 8	2- to 2048 fold	4- to 256 fold	8- to 32 fold	1 to 16	0.5 to 4	1 to 2	2 to 8	fourfold increase	no antimicrobial activity
